According to PubChem BioAssay (NCI):
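Each compound was tested at five concentrations against cells in 96-well plates for 48 hours. At the GI50, growth is halved. TGI denotes the concentration required for complete inhibition of growth.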

Key:
Assay in all cases: inhibition of tumour cell growth, NCI panel, 48 h
[1] = test system: OVCAR-8 ovarian
[2] = test system: SK-OV-3 ovarian
[3] = test system: SNB-75 CNS
[4] = test system: SF-268 CNS
[5] = test system: UACC-257 melanoma
[6] = test system: NCI-H23 lung
[7] = test system: LOX IMVI melanoma
[8] = test system: HS 578T breast
[9] = test system: HL-60(TB) leukemia
[10] = test system: MALME-3M melanoma

SMILES	GI50 [1] [µM]	TGI [1] [µM]	GI50 [2] [µM]	TGI [2] [µM]	GI50 [3] [µM]	TGI [3] [µM]	GI50 [4] [µM]	TGI [4] [µM]	GI50 [5] [µM]	TGI [5] [µM]	GI50 [6] [µM]	TGI [6] [µM]	GI50 [7] [µM]	TGI [7] [µM]	GI50 [8] [µM]	TGI [8] [µM]	GI50 [9] [µM]	TGI [9] [µM]	GI50 [10] [µM]	TGI [10] [µM]
Cc1ccnc2c1NC(=O)c1cccnc1N2C1CC1	> 100	> 100	> 100	> 100	54.4	> 100	> 100	> 100	> 100	> 100	> 100	> 100	> 100	> 100	> 100	> 100	> 100	> 100		
C[C@]12CC[C@H]3[C@@H](C[C@@H]4SC(Nc5cccc(F)c5)=N[C@@]45CC(=O)CC[C@]35C)[C@@H]1CCC2=O	2.79	7.98	2.33	6.1	1.52	4.94	3.09	11.1	5.47	64.5	2.27	9.08	1.67	3.21	3.14	> 100	2.73	8	1.94	5.04
O=[N+]([O-])c1ccc2nc(N/N=C/c3ccc(O)cc3)sc2c1	3.75	32.2	5.37	48.9	5.16	56.1	4.84	53.1	9.09	45	5.22	> 100	3.08	10.6	3.7	38.3	3.6	10.6	19.7	> 100
C[C@]12CC[C@@H]3c4ccc(O)cc4CC[C@H]3[C@@H]1CC[C@@H]2NS(=O)(=O)c1cccc(Br)c1	3.98	16.7	6.8	18.6	2.9	13.5	3.98	16.6	5.1	20	3.89	17	3.13	11.6	4.04	24.8			2.27	7.58
O=C(Nc1ccc(-n2cc(-c3ccncc3)c(-c3ccc(Cl)c(O)c3)n2)cc1)c1cc(Cl)cc(Cl)c1	14.4	> 100	> 21.2	> 100	2.79	> 100	> 100	> 100	5.68	> 100	7.41	> 100	1.19	2.62	4.3	> 100	4.41	> 31.6	2.56	8.81
CS(=O)(=O)c1ccc(C(F)(F)F)cc1NC(=O)Nc1cnc(Oc2ccc(-c3cc(Cl)cnc3N)cc2)nc1	2.86	> 29	3.31	18	1.11	11.5	2.39	10.3	3.07	11.5	2.56	7.69	1.62	3.05	2.08	8.44	2.63	5.75	2.05	5.29
Cc1cc(N2CCN(C)CC2)nc(NC2CCCC(Nc3ccnc4cc(Cl)ccc34)C2)n1 (stereo not given)	3.75	15.5	3.35	11.5	1.65	5	1.97	6.35	2.1	3.93	4.19	17.7	1.77	3.53	2.17	6.41	2.09	4.09	1.82	3.45
CC1=CC(C)C(O)C(C)/C=C/C(O)C/C=C(/C)C(=O)CC(O)C(C)\C=C/C=C/C=C\C(=O)NC2=C(O)c3cc(C)c(O)c(c3C(=O)C2=O)C1=O (stereo not given)		> 100				> 100		> 100		> 100		> 100		> 100		> 100		> 100		
Nc1cc(C(F)F)c(-c2nc(N3[C@@H]4CC[C@H]3COC4)nc(N3[C@@H]4CC[C@H]3COC4)n2)cn1	0.465	> 100	0.145	0.769	0.06	0.793	0.374	> 100	0.295	4.31	0.652	> 100	0.336	> 48	0.18	0.908	2.29	> 100	0.0713	0.877
N/C(=N\C(=S)N1CCCCC1)N1CCCCC1		> 100		> 100		> 100		> 100		> 100		> 100		> 100				> 100		> 100
NC(=O)c1c(OCc2c(F)cc(Br)cc2F)nsc1NC(=O)NCCCCN1CCCC1	4	> 10	> 10	> 10			1.78	> 10	1.85	3.94	5.18	> 10	1.16	2.5	0.157	0.971	2.4	4.68	1.73	3.41
C=CC1=C(C)C2=NC1=CC1=NC(=C(CC)/C1=C/O)C=C1C=C3C(=O)C(C(=O)OC)C(=C4NC(=C2)C(C)C4CCC(=O)OC/C=C(\C)CCCC(C)CCCC(C)CCCC(C)C)C3=N1 (stereo not given) (tested in a mixture with another compound)		> 100		> 100		> 100		> 100		> 100		> 100		> 100		> 100				
CSC(=S)NN=C1CCCCC1		> 100		> 100		> 100		> 100		> 100		> 100		53.1		> 100				44.8
O=C(C#Cc1c[nH]c(=O)[nH]c1=O)c1ccccc1		22.4		62.9		33.1		26.8		23.8		27.6		16.3				14.3		15.2
COC(=O)/C(=C/N1CCN(C(=O)c2ccco2)C1=S)C(C)=O	27.8	88.5	31.3	78.2	21	> 100	5.84	25.6	17.2	39.3	12.2	31.9	1.59	3.99			7.47	71.5	5.64	50.4
CC(NC1CCC[C@H]1O)c1ccccc1 (mixture of isomers)		> 100		> 100		> 100		> 100		> 100		> 100		> 100				> 100		> 100
CN/N=C(\C)CC(=O)Nc1cccc(Cl)c1C		> 100		> 100		> 100		> 100		> 100		> 100		> 100				> 100		> 100

SMILES	GI50 [1] [µM]	TGI [1] [µM]	GI50 [2] [µM]	TGI [2] [µM]	GI50 [3] [µM]	TGI [3] [µM]	GI50 [4] [µM]	TGI [4] [µM]	GI50 [5] [µM]	TGI [5] [µM]	GI50 [6] [µM]	TGI [6] [µM]	GI50 [7] [µM]	TGI [7] [µM]	GI50 [8] [µM]	TGI [8] [µM]	GI50 [9] [µM]	TGI [9] [µM]	GI50 [10] [µM]	TGI [10] [µM]
COCCN1C2=CCCCC2=Nc2c(N)nc(N)nc21		> 100		> 100		> 100		> 100		> 100		> 100		> 100				> 100		> 100
C=CC(=O)Nc1cc2c(Nc3ccc(OCc4ccccn4)c(Cl)c3)ncnc2cc1OCCN1CCOCC1	5.26	> 100			2.09	> 74.3	2.87	> 65.9	10.6	> 100	5.24	20	1.81	5.83	2.01	> 100	2.58	22.5	11.2	42.1
O=C(O)C1Cc2nc[nH]c2CN1 (stereo not given)		> 100		> 100		> 100		> 100		> 100		> 100		> 100				> 100		> 100
O=C1C=C(Br)C(=O)C(Br)=C1		> 100		> 100		> 100		> 100		> 100		> 100		> 31.6				54.9		> 100
COCCOC(C)C(/C=N/NC(N)=S)=N/NC(N)=S (stereo not given)	> 100	> 100	> 100	> 100	> 100	> 100	> 100	> 100	0.0232	> 100	> 100	> 100		> 100	> 100	> 100		> 58.9		
C#C[C@]1(O)CC[C@H]2[C@@H]3CC=C4c5nc(Nc6ccc(OC)cc6OC)sc5CC[C@]4(C)[C@H]3CC[C@@]21C	3.2	> 100	1.83	7.02			1.75	6.65	1.57	4.99	2.18	12	1.45	2.97	0.411	2.36	1.42	5.91	0.655	2.85
COc1ccc(-c2c(N)[n+]([O-])c3cc(C)c(C)cc3[n+]2[O-])cc1OC		> 100		> 100		> 100		> 100		> 100		> 100		> 100				> 100		> 100
Cc1ccc(NC2=C(Cl)C(=O)c3nc(C)ccc3C2=O)cc1	1.47	3.14	11.9	24.6	1.81	3.72	1.74	3.78	1.58	3			0.711	2.22	1.88	4.8	1.98	4.96	1.75	3.23
Fc1cccc(F)c1C1SCc2nc3ccccc3n21 (stereo not given)		> 100		> 100		> 100		> 100		> 100		> 100		> 100				82.7		> 100
COC(=O)C(C(=O)C(=O)Nc1ccccc1OC)c1csc(-n2nc(-c3ccccc3)cc2-c2ccccc2)n1 (stereo not given)		> 100		> 100		92.7		> 100		> 100		> 100		> 100				> 100		> 100
O=C(c1cccs1)c1c(C(F)(F)F)n([O-])c2cc(F)c(F)cc2[n+]1=O	2.77	5.16	2.69	5.85			2.99	6.88	3.11	6.79	2.26	4.94	0.747	1.78	1.21	12.1	0.904	5.65	0.79	1.52
COc1ccc(/C=N/NC(=O)O)cc1				> 100		> 100				> 100		> 100		> 100		> 100				> 100
NC(C(=O)O)C(N)C(=O)O (stereo not given)		> 100		> 100				> 100		> 100		> 100		> 100		> 100		> 100		> 100
Nc1ccc(-c2ccc(-c3nc4ccccc4[nH]3)cc2)cc1	14.1	97.5	46	> 100	27.8	69.4	2.76	> 100	1.11	> 100	10.6	> 90.6		> 100	31.1	> 100			7.19	> 52.7
CC1CC(=O)C(C(O)CC2CC(=O)N(c3ccccc3)C(=O)C2)C(C)C1 (stereo not given)		> 100		> 100		> 100		> 100		> 100		> 100		> 100				> 100		> 100
N#Cc1c(NC(=O)CCC(=O)O)ccc2ccccc12		> 100		> 100		> 100		> 100		> 100		> 100				> 100				> 100
